We go through 4 molecules from patent US10513694B2, “Thienopyrrole compounds and uses thereof” (PROMEGA CORPORATION, priority 2015, dated 2019).

As a reminder, the IC50 is the concentration needed to halve the response being measured. Higher therefore signals lower potency.

The target of one assay is Nluc luciferase (Oplophorus gracilirostris, UniProt Q9GV45, A31E/A60N/A81I/F95D/I117V/K70R/L54V/L99Q/M102K/N193R/P142E/Q151K/Q38R/Q45L/V71I/Y165I). Put plainly: Inhibition of purified Nluc, dose and time dependence. The format is biochemical. Particulars: pro-substrate PBI-4442, DTT, TERGITOL, RT, various time points. As to the method:
A solution of purified Nluc and an Nluc pro-substrate (PBI-4442, which is described in US 2013/0130289), which is converted to an Nluc substrate upon reduction with DTT, were prepared in PBS buffer, pH 7.5. A 40 mM solution of DTT in PBS, pH 7.5 containing 1% TERGITOL was also prepared. Titrations of the thienopyrrole compounds JRW-0004, WZ141-88, WZ141-86, WZ141-74, WZ141-84, WZ141-89, WZ141-90, and WZ141-91 in the buffer containing DTT and TERGITOL were then prepared. An equal volume of the Nluc/pro-substrate solution was added to the thienopyrrole compound titrations in wells of an assay plate. The reactions were incubated at RT, and luminescence was measured at various time points on the Tecan M100 Pro plate reader (integration time 200 ms). IC50 values were determined using GraphPad Prism 6.03.

The target in another assay is NANOLUC® enzyme (Oplophorus gracilirostris, UniProt Q9GV45, A31E/A60N/A81I/F95D/I117V/K70R/L54V/L99Q/M102K/N193R/P142E/Q151K/Q38R/Q45L/V71I/Y165I). In words: Inhibitor IC50 determination (NANOLUC enzyme, furimazine). Type of assay: biochemical. Particulars: IC50 (uM), 0.4 ng/ml NANOLUC enzyme, final furimazine 10 uM (at Km).
NANOLUC® enzyme, sequence (Q9GV45 28-196 with tags or gaps with the stated changes limits assumed): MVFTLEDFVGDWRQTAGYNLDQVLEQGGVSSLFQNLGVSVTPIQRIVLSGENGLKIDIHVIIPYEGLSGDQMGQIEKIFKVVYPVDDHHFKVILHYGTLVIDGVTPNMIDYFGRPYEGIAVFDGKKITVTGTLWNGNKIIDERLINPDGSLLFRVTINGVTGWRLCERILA
The next assay concerns UltraGlo luciferase. In words: Specificity of inhibition of Nluc luciferase: UltraGlo luciferase. As to conditions: RT 2 hrs. The format is biochemical, firefly. As for the experimental part: The following example describes the specificity of disclosed thienopyrrole compounds, JRW-0251, JRW-0344, and JRW-0147, to inhibit Nluc luciferase activity versus firefly luciferase activity, e.g., ULTRAGLO® luciferase. In a Corning 3570 assay plate, a solution containing 1 μM luciferin in Luciferase Detection Reagent (Promega Corporation V865/859) was added to the assay wells. An equal volume of titrations the thienopyrrole compounds, JRW-0251, JRW-0344, and JRW-0147 were then added to the wells. The reactions were incubated at RT for 2 hrs, and luminescence was measured on Tecan M1000 Pro plate reader.

The target of the next assay is Nluc (Oplophorus gracilirostris, UniProt Q9GV45, A31E/A60N/A81I/F95D/I117V/K70R/L54V/L99Q/M102K/N193R/P142E/Q151K/Q38R/Q45L/V71I/Y165I). Put plainly: Specificity of inhibition of Nluc luciferase: Nluc. Type of assay: biochemical.
Nluc, sequence (Q9GV45 28-196 with tags or gaps with the stated changes limits assumed): as above

Nluc luciferase, sequence (Q9GV45 28-196 with tags or gaps with the stated changes limits assumed): as above

`COC(=O)c1cc2sccc2n1CC(=O)N(Cc1ccccc1)c1cccc(C)c1` [WZ-141-86, methyl 4-(2-(benzyl(m-tolyl)amino)-2-oxoethyl)-4H-thieno[3,2-b]pyrrole-5-carboxylate]: at Nluc luciferase, the “Inhibition of Nluc luciferase, dose and time dependence (FIGS. 4-6)” value is “inhibit Nluc luciferase in a dose- and time-dependent manner”.
Same read-out and setting: the same measure for `CCN(C(=O)Cn1c(C(=O)NCc2ccncc2)cc2sccc21)c1cccc(C)c1` [WZ-141-89, 4-(2-(ethyl(m-tolyl)amino)-2-oxoethyl)-N-(pyridin-4-ylmethyl)-4H-thieno[3,2-b]pyrrole-5-carboxamide]: “inhibit Nluc luciferase in a dose- and time-dependent manner”; for `CCN(C(=O)Cn1c(C(=O)NCCCN2CCOCC2)cc2sccc21)c1cccc(C)c1` [WZ-141-90, 4-(2-(ethyl(m-tolyl)amino)-2-oxoethyl)-N-(3-morpholinopropyl)-4H-thieno[3,2-b]pyrrole-5-carboxamide]: “inhibit Nluc luciferase in a dose- and time-dependent manner”.
Turning to `CCN(C(=O)Cn1c(C(=O)N[C@H]2CC[C@H](C(=O)NCCCCCCNC(=O)[C@H](CC(=O)O)NC(=O)[C@H](CC(=O)O)NC(=O)[C@H](CC(=O)O)NC(C)=O)CC2)cc2sccc21)c1cccc(C)c1` [JRW-0251, (11S,14S,17S)-17-acetamido-11,14-bis(carboxymethyl)-1-(trans-4-(4-(2-(ethyl(m-tolyl)amino)-2-oxoethyl)-4H-thieno[3,2-b]pyrrole-5-carboxamido)cyclohexyl)-1,10,13,16-tetraoxo-2,9,12,15-tetraazanonadecan-19-oic acid], inhibition against NANOLUC® enzyme was half-maximal at 0.077 µM (IC50). Besides, the “Inhibition of firefly luciferase activity (Table 3)” value with UltraGlo luciferase is given as “did not inhibit the firefly luciferase activity”. Further, the “UltraGlo luciferase, Avg (luminescence)” value stood at 83059 in the assay with UltraGlo luciferase ([cmpd] 0.1953125 μM); 82723 in the assay on UltraGlo luciferase ([cmpd] 0.390625 μM); 82812 in the assay with UltraGlo luciferase ([cmpd] 0.78125 μM); 82370 with UltraGlo luciferase ([cmpd] 1.5625 μM); 81125 in the assay on UltraGlo luciferase ([cmpd] 3.125 μM); 83665 with UltraGlo luciferase ([cmpd] 6.25 μM). In addition, the “UltraGlo luciferase, Avg (luminescence)” value in the assay with UltraGlo luciferase ([cmpd] 12.5 μM) amounted to 83569; with UltraGlo luciferase ([cmpd] 25 μM), 83382; in the assay on UltraGlo luciferase ([cmpd] 50 μM) it was 81930; in the assay with UltraGlo luciferase ([cmpd] 100 μM), 79556; in the assay on UltraGlo luciferase ([cmpd] 200 μM) it was 77788. The “UltraGlo luciferase, S/B” value is listed as 0.98 with UltraGlo luciferase ([cmpd] 0.1953125 μM); 0.98 in the assay on UltraGlo luciferase ([cmpd] 0.390625 μM); 0.98 with UltraGlo luciferase ([cmpd] 0.78125 μM); 0.98 with UltraGlo luciferase ([cmpd] 1.5625 μM); 0.96 in the assay with UltraGlo luciferase ([cmpd] 3.125 μM); 0.99 in the assay with UltraGlo luciferase ([cmpd] 6.25 μM). For the same molecule, the “UltraGlo luciferase, S/B” value in the assay on UltraGlo luciferase ([cmpd] 12.5 μM) is 0.99; in the assay on UltraGlo luciferase ([cmpd] 25 μM), 0.99; in the assay on UltraGlo luciferase ([cmpd] 50 μM), 0.97; with UltraGlo luciferase ([cmpd] 100 μM), 0.94; with UltraGlo luciferase ([cmpd] 200 μM), 0.92. The “Nluc, Avg (luminescence)” value at Nluc ([cmpd] 0.1953125 μM) is recorded as 108634; at Nluc ([cmpd] 0.390625 μM), 106075; on Nluc ([cmpd] 0.78125 μM) it was 105881; at Nluc ([cmpd] 1.5625 μM), 96602; at Nluc ([cmpd] 3.125 μM), 86555; on Nluc ([cmpd] 6.25 μM), 81193. Besides, the “Nluc, Avg (luminescence)” value at Nluc ([cmpd] 12.5 μM) is reported as 68664; at Nluc ([cmpd] 25 μM), 55210; on Nluc ([cmpd] 50 μM), 44219; at Nluc ([cmpd] 100 μM) it was 34389; on Nluc ([cmpd] 200 μM) it was 23311. Also, the “Nluc, S/B” value on Nluc ([cmpd] 0.1953125 μM) is given as 0.95; on Nluc ([cmpd] 0.390625 μM), 0.93; at Nluc ([cmpd] 0.78125 μM), 0.92; at Nluc ([cmpd] 1.5625 μM) it was 0.84; on Nluc ([cmpd] 3.125 μM) it was 0.76; on Nluc ([cmpd] 6.25 μM) it was 0.71. In addition, the “Nluc, S/B” value is 0.60 on Nluc ([cmpd] 12.5 μM); 0.48 on Nluc ([cmpd] 25 μM); 0.39 at Nluc ([cmpd] 50 μM); 0.30 on Nluc ([cmpd] 100 μM); 0.20 at Nluc ([cmpd] 200 μM).
